{"source": "patent US20110257087A1", "about": "“Protein Hydrolysate Compositions Having Enhanced CCK Releasing Activity” (SOLAE, LLC, priority 2008, published 2011)", "system": "STC-1 cells", "test": "CCK release by STC-1 cells (competitive enzyme assay of the cell-conditioned medium)", "assay_type": "cell-based, mouse", "conditions": "positive control, 100 nM PMA in 2 mg/ml BSA, 4 hour", "experimental": "The protein hydrolysates were added to the media of STC-1 cells at a protein concentration of approximately 2 mg/mL, and the enzyme controls were added at equivalent dilutions of the control reaction mixture (which included the enzyme(s) in the absence of protein substrate). Plotted is the % CCK released into the media of STC-1 cells stimulated by the different protein hydrolysates generated by the pepsin or pepsin and pancreatin enzymes, compared to the control 100 nM PMA (which was set as 100%). Cell culture media alone and 2 mg/mL bovine serum albumin (BSA) were used as negative background controls. The PMA control consisted of 100 nM PMA in cell culture media containing 2 mg/ml BSA. % CCK released into the cell culture media was calculated as follows: […]\nIt is known that protein, in general, stimulates the release of CCK by enteroendocrine cells in the intestinal track of animals, including humans (Liddle, R. A., et al., (1986) Proteins But Not Amino Acids, Carbohydrates, or Fats Stimulate Cholecystokinin Secretion in the Rat. Am. J. Physiol. 251 (Gastrointest. Liver Physiol. 14): G243-G248). […] Degree of hydrolysis was determined by the reaction of primary amine groups with o-phthalaldehyde (OPA) vs. total amount of primary amine present in sample after acid hydrolysis (110° C. for 24 hours) (known as, the “OPA method”). […]"}
{"smiles": "CCCCCCCCCCCCCC(=O)O[C@@H]1[C@@H](C)[C@@]2(O)[C@@H](C=C(CO)C[C@]3(O)C(=O)C(C)=C[C@@H]23)[C@@H]2C(C)(C)[C@]12OC(C)=O", "note": "[PMA, phorbol 12-myristate-13-acetate]", "values": [{"measurement": "CCK Release (ng/ml) mean ± sem", "value": "0.171 ± 0.003", "unit": "ng/mL"}]}
